Measurements as given in PubChem BioAssay AID2060492 (Molecular Pharmacology Branch, DTP, NCI, 2025).

Tested on: 695427-040-R-J1-PDC complex spheroids, viability percent T/C
Experiment: Anticancer human tumor 695427-040-R-J1-PDC patient-derived colon adenocarcinoma cell line growth inhibition [GQUAD]
Conditions: for IC50: curve of first compound; for viability, T/C: stronger effect = lower value
Outline: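 Tumor cells were grown as complex spheroids with HUVEC endothelial cells and mesenchymal stem cells as stroma. G-quadruplex stabilizers were combined with targeted agents over half-log dilutions from near the clinical Cmax, or from 10 microM.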

[1] = second compound 0.0316 µM, first compound 0.0316 µM
[2] = second compound 0.0316 µM, first compound 0.1 µM
[3] = second compound 0.0316 µM, first compound 0.316 µM
[4] = second compound 0.0316 µM, first compound 1 µM
[5] = second compound 0.0316 µM, first compound 3.16 µM
[6] = second compound 0.0316 µM, first compound 10 µM
[7] = second compound 0.1 µM, first compound 0.0316 µM
[8] = second compound 0.1 µM, first compound 0.1 µM
[9] = second compound 0.1 µM, first compound 0.316 µM
[10] = second compound 0.1 µM, first compound 1 µM
[11] = second compound 0.1 µM, first compound 3.16 µM
[12] = second compound 0.1 µM, first compound 10 µM
[13] = second compound 0.316 µM, first compound 0.0316 µM
[14] = second compound 0.316 µM, first compound 0.1 µM
[15] = second compound 0.316 µM, first compound 0.316 µM
[16] = second compound 0.316 µM, first compound 1 µM
[17] = second compound 0.316 µM, first compound 3.16 µM
[18] = second compound 0.316 µM, first compound 10 µM
[19] = second compound 1 µM, first compound 0.0316 µM
[20] = second compound 1 µM, first compound 0.1 µM
[21] = second compound 1 µM, first compound 0.316 µM
[22] = second compound 1 µM, first compound 1 µM
[23] = second compound 1 µM, first compound 3.16 µM
[24] = second compound 1 µM, first compound 10 µM
[25] = second compound 3.16 µM, first compound 0.0316 µM
[26] = second compound 3.16 µM, first compound 0.1 µM
[27] = second compound 3.16 µM, first compound 0.316 µM
[28] = second compound 3.16 µM, first compound 1 µM
[29] = second compound 3.16 µM, first compound 3.16 µM
[30] = second compound 3.16 µM, first compound 10 µM
[31] = second compound 10 µM, first compound 0.0316 µM
[32] = second compound 10 µM, first compound 0.1 µM
[33] = second compound 10 µM, first compound 0.316 µM
[34] = second compound 10 µM, first compound 1 µM
[35] = second compound 10 µM, first compound 3.16 µM
[36] = second compound 10 µM, first compound 10 µM
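Further: spheroids exposed to compounds for seven days before readout.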

What does the source list for O=C(NO)c1cnc(N2CCN(S(=O)(=O)c3ccc4ccccc4c3)CC2)nc1 + Cc1cnc(CNC(=O)c2c(=O)c3ccc(N4CCCN(C)CC4)nc3n3c2sc2ccccc23)cn1?
IC50 (second compound 0.0316 µM): 418 nM; IC50 (second compound 0.1 µM): 445 nM; IC50 (second compound 0.316 µM): 281 nM; IC50 (second compound 1 µM): 172 nM; IC50 (second compound 3.16 µM): < 31.6 nM; IC50 (second compound 10 µM): < 31.6 nM; viability, T/C [1]: 91.1%; viability, T/C [2]: 78.5%; viability, T/C [3]: 64.4%; viability, T/C [4]: 6.15%; viability, T/C [5]: 0.22%; viability, T/C [6]: 0.22%; viability, T/C [7]: 87.2%; viability, T/C [8]: 65.5%; viability, T/C [9]: 68.3%; viability, T/C [10]: 7.35%; viability, T/C [11]: 0.34%; viability, T/C [12]: 0.28%; viability, T/C [13]: 85.3%; viability, T/C [14]: 70.1%; viability, T/C [15]: 49.8%; viability, T/C [16]: 6.3%; viability, T/C [17]: 0.18%; viability, T/C [18]: 0.19%; viability, T/C [19]: 56.4%; viability, T/C [20]: 58.3%; viability, T/C [21]: 41.7%; viability, T/C [22]: 0.29%; viability, T/C [23]: 0.1%; viability, T/C [24]: 0.17%; viability, T/C [25]: 48.4%; viability, T/C [26]: 45.6%; viability, T/C [27]: 23.1%; viability, T/C [28]: 0.14%; viability, T/C [29]: 0.11%; viability, T/C [30]: 0.12%; viability, T/C [31]: 24.2%; viability, T/C [32]: 13.8%; viability, T/C [33]: 0.3%; viability, T/C [34]: 0.15%; viability, T/C [35]: 0.17%; viability, T/C [36]: 0.18%

With O=c1[nH]cc(F)c(=O)[nH]1 + Cc1cnc(CNC(=O)c2c(=O)c3ccc(N4CCCN(C)CC4)nc3n3c2sc2ccccc23)cn1 as the molecule, how does the IC50 (second compound 0.0316 µM) read?
Its IC50 is > 10000 nM.

And the IC50 (second compound 0.1 µM)?
Its IC50 is > 10000 nM.

And the IC50 (second compound 0.316 µM)?
Its IC50 is > 10000 nM.

What about the IC50 (second compound 1 µM) of the same molecule?
Its IC50 is > 10000 nM.

What about the IC50 (second compound 3.16 µM) of the same molecule?
The IC50 was < 31.6 nM.

What about the IC50 (second compound 10 µM) of the same molecule?
The IC50 was < 31.6 nM.

What about the viability, T/C [1] of the same molecule?
The viability, T/C was 108%.

What about the viability, T/C [2] of the same molecule?
The viability, T/C was 70.6%.

What about the viability, T/C [3] of the same molecule?
Its viability, T/C is 70.8%.

And the viability, T/C [4]?
Its viability, T/C is 69.7%.

And the viability, T/C [5]?
Its viability, T/C is 76%.

And the viability, T/C [6]?
The viability, T/C was 105%.

What about the viability, T/C [7] of the same molecule?
The viability, T/C was 94.2%.

And the viability, T/C [8]?
The viability, T/C was 79.4%.

And the viability, T/C [9]?
Its viability, T/C is 72.4%.

What about the viability, T/C [10] of the same molecule?
The viability, T/C was 74.9%.

And the viability, T/C [11]?
The viability, T/C was 94.2%.

What about the viability, T/C [12] of the same molecule?
The viability, T/C was 97.5%.

What about the viability, T/C [13] of the same molecule?
Its viability, T/C is 83.6%.

What about the viability, T/C [14] of the same molecule?
The viability, T/C was 67.5%.

What about the viability, T/C [15] of the same molecule?
The viability, T/C was 80.9%.

What about the viability, T/C [16] of the same molecule?
The viability, T/C was 67.9%.

What about the viability, T/C [17] of the same molecule?
Its viability, T/C is 86.4%.

And the viability, T/C [18]?
The viability, T/C was 85.8%.

And the viability, T/C [19]?
Its viability, T/C is 77.8%.

And the viability, T/C [20]?
Its viability, T/C is 58%.

And the viability, T/C [21]?
The viability, T/C was 63.8%.

What about the viability, T/C [22] of the same molecule?
The viability, T/C was 71.4%.

What about the viability, T/C [23] of the same molecule?
The viability, T/C was 80.1%.

What about the viability, T/C [24] of the same molecule?
Its viability, T/C is 77.6%.

What about the viability, T/C [25] of the same molecule?
Its viability, T/C is 44.9%.

What about the viability, T/C [26] of the same molecule?
Its viability, T/C is 53.1%.

What about the viability, T/C [27] of the same molecule?
The viability, T/C was 59.9%.

What about the viability, T/C [28] of the same molecule?
Its viability, T/C is 45.3%.

What about the viability, T/C [29] of the same molecule?
Its viability, T/C is 72.2%.

And the viability, T/C [30]?
The viability, T/C was 54.3%.

And the viability, T/C [31]?
Its viability, T/C is 28.3%.

And the viability, T/C [32]?
The viability, T/C was 54.2%.

And the viability, T/C [33]?
The viability, T/C was 48.8%.

What about the viability, T/C [34] of the same molecule?
The viability, T/C was 43.8%.

And the viability, T/C [35]?
The viability, T/C was 54.6%.

What about the viability, T/C [36] of the same molecule?
Its viability, T/C is 49.9%.
